{"source": "patent US20260055081A1", "about": "“Metal Chelator Compounds, Coordination Complexes, and Methods of Preparation and Use Thereof” (University of Puerto Rico, priority 2022, published 2026)", "key": {"Melanoma cell lines": {"tested_on": "Melanoma cell lines", "assay": "NCI 60 five-dose screen, melanoma panel", "type": "cell-based, human", "conditions": "48 h", "description": "(§1) National Cancer Institute Cancer Cell Line (NCI 60) Screen of DefNEtTrp. Details of the methodology for NCI 60 cell line screening are described at http://dtp.nci.nih.gov/branches/btb/ivclsp.html. The cells, grown in supplemented RPMI-1640 medium, are seeded in 96 well plates at an appropriate density and incubated for 24 h. The test compounds are dissolved in DMSO and incubated with cells at a single dose of 10.0 μM for 48 h. The assay is terminated by addition of cold trichloroacetic acid, and the cells are fixed and stained with sulforhodamine B. Bound stain is solubilized, and the absorbance is read on an automated plate reader. […] Using the seven absorbance measurements [time zero, […], control growth, (C), and test growth in the presence of drug at the five concentration levels (Tf)], the percentage growth was calculated at each of the drug concentrations levels as: [(Tf−Ti)/(C−Ti)]×100 for concentrations for which Tf≥Ti and [(Tf−Ti)/Ti]×100 for concentrations for which Tf<Ti. Three-dose response parameters (GI50, TGI, and LC50) were calculated for each of the experimental agents in five dose assay. […] The total growth inhibition (TGI) was calculated from Tf=Ti, which was the drug concentration resulting in total growth inhibition and signified the cytostatic effect. […]"}, "[1]": {"tested_on": "Ovarian cancer cell lines", "assay": "NCI 60 five-dose screen, ovarian panel", "type": "cell-based, human", "conditions": "48 h", "description": "as §1"}, "Renal cancer cell lines": {"tested_on": "Renal cancer cell lines", "assay": "NCI 60 five-dose screen, renal panel", "type": "cell-based, human", "conditions": "48 h", "description": "as §1"}, "Jurkat cells": {"tested_on": "Jurkat cells", "assay": "Apoptosis mechanistic cell viability study (Q-VD-OPh)", "type": "cell-based, human", "conditions": "10 μM Q-VD-OPh pretreatment, 2 μM DefNEtTrp, 72 h", "description": "Apoptosis mechanistic cell viability study. Jurkat cells were seeded into 96-well plates, as indicated in the MTT assay described above. The cells were treated with 10 μM of the apoptosis inhibitor Q-VD-OPh (Q-V-O). Another group of cells were treated with media alone. After 1 h incubation, half of the cells supplemented with Q-V-O were treated with 2 μM DefNEtTrp or 2 μM cisplatin, as positive control, while the other half was treated with media alone. The final percentage of DMF was maintained at 0.5% (v/v). The MTT assay was performed with these samples (n=6). A student t-test was performed to evaluate the difference in the viability of cells treated with DefNEtTrp or cisplatin and supplemented with and without Q-V-O."}, "[2]": {"assay": "Aqueous solubility (observation)", "type": "physicochemical"}, "[3]": {"conditions": "cell lines in which TGI was observed"}, "[4]": {"conditions": "Homo sapiens, read-out: GI50 (calculated average)"}}, "data": [{"molecule": "Nc1cccnc1/C=N/NC(=S)NCCNC(=O)c1ccc(-n2nc(-c3ccccc3O)nc2-c2ccccc2O)cc1", "note": "[DefNEtTrp, deferasirox nitrogen ethyl triapine]", "values": [{"measurement": "TGI (calculated average)", "setting": "Melanoma cell lines; [3]", "value": 4.73, "unit": "µM"}, {"measurement": "GI50", "setting": "Melanoma cell lines; [4]", "value": 610, "unit": "nM"}, {"measurement": "TGI (calculated average)", "setting": "[1]; [3]", "value": 9.82, "unit": "µM"}, {"measurement": "GI50", "setting": "[1]; [4]", "value": 1120, "unit": "nM"}, {"measurement": "TGI (calculated average)", "setting": "Renal cancer cell lines; [3]", "value": 13.71, "unit": "µM"}, {"measurement": "GI50", "setting": "Renal cancer cell lines; [4]", "value": 4.97, "unit": "µM"}, {"measurement": "change in viability of cells pretreated with Q-VD-OPh", "setting": "Jurkat cells", "value": "two-fold increase in viability"}, {"measurement": "water solubility", "setting": "[2]", "value": "limited water solubility"}]}]}
